Data on 23 molecules can be found in US20230165873A1, “Methods of Use for Single Molecule Compounds Providing Multi-Target Inhibition to Treat Covid 19” (priority 2020, published 2023).

Each structure is given as a SMILES string. A value given as a limit tells only on which side of the number the result lay.

For one test, the target named is T1, BRD4-1 (Homo sapiens, UniProt O60885).
T1 construct: BRD4-1
Kind of test: BRD4-1 in vitro inhibition. Format: binding. Here is the method:
(§1) The kinase or bromodomain inhibitory activity of a compound of the invention can be determined by routine methods known to the skilled artisan without undue experimentation, or by procuring relevant analysis by a commercial vendor offering such services. […] In vivo, PI3K inhibition can be determined from target tissue biopsies by standard tissue processing in which cells are disrupted and Western Blot analysis is performed to determine the presence or absence of pAKT (substrate of PI3K) relative to a control sample. PI3K inhibition assays and BTK inhibition assays are known in the art and can be procured commercially through vendors such as Reaction Biology (Malvern, PA). The activity of a compound of the invention as an inhibitor of a bromodomain-containing protein, such as a BET protein, including BRD2, BRD3, BRD4, and/or BRDT, or an isoform or mutant thereof, may be determined in vitro, in vivo, or in a cell line. In vitro assays include assays that determine inhibition of bromodomain-containing proteins. Alternatively, inhibitor binding may be determined by running a competition experiment where a provided compound is incubated with a bromodomain-containing protein, such as a BET protein bound to known ligands, labeled or unlabeled. In vitro bromodomain inhibition assays can be performed using Alpha Screen Technology (Perkin Elmer Life and Analytical Sciences, Shelton, CT). In vivo bromodomain inhibition can be determined indirectly by evaluating the amount of a protein whose gene transcription is influenced or controlled by the bromodomain protein, for example, MYCN protein transcription is controlled by BRD4 (J.E. Delmore et al., Cell 2011, 146, 904-917; A. Puissant, Cancer Discov. 2013, 3, 308-323).

The target of a further test is T2, BRD4-2 (Homo sapiens, UniProt O60885).
T2 construct: BRD4-2
In words: BRD4-2 in vitro inhibition. Format: binding. Here is the method:
as §1

Another test addresses PI3K alpha (Homo sapiens, UniProt P42336). Kind of test: PI3K alpha in vitro inhibition. Format: biochemical. On the procedure:
as §1

The next test deals with PI3K beta (Homo sapiens, UniProt P42338). Kind of test: PI3K beta in vitro inhibition. It counts as biochemical. Here is the method: as §1
Chain of PI3K beta (P42338 whole entry): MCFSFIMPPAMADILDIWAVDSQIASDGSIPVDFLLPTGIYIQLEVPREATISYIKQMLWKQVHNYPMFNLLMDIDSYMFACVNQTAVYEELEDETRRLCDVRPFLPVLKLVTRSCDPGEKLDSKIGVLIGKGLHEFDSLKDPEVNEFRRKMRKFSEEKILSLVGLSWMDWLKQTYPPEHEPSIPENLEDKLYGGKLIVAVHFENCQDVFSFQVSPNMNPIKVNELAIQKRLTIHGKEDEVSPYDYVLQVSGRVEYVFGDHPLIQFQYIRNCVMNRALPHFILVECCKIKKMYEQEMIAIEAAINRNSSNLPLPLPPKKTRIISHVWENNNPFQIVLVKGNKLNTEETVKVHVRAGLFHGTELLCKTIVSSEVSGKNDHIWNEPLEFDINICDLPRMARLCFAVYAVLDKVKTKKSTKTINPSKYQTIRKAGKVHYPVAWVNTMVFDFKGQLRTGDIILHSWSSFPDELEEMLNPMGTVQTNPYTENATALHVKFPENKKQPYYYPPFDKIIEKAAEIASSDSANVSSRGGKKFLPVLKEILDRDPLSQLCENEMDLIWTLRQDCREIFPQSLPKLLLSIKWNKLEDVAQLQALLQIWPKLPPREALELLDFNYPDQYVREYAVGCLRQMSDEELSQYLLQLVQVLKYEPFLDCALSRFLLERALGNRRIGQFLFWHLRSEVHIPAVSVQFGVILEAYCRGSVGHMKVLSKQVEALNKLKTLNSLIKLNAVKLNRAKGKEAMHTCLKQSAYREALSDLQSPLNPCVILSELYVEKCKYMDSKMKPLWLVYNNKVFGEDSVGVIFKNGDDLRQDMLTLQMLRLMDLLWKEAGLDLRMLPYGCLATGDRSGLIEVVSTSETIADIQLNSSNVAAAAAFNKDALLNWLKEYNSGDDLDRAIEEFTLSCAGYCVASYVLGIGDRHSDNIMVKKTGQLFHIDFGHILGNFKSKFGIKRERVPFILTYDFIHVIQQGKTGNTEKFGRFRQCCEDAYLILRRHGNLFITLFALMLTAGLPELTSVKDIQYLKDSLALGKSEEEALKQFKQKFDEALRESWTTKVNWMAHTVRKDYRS
Chain of PI3K beta (P27986 whole entry partner): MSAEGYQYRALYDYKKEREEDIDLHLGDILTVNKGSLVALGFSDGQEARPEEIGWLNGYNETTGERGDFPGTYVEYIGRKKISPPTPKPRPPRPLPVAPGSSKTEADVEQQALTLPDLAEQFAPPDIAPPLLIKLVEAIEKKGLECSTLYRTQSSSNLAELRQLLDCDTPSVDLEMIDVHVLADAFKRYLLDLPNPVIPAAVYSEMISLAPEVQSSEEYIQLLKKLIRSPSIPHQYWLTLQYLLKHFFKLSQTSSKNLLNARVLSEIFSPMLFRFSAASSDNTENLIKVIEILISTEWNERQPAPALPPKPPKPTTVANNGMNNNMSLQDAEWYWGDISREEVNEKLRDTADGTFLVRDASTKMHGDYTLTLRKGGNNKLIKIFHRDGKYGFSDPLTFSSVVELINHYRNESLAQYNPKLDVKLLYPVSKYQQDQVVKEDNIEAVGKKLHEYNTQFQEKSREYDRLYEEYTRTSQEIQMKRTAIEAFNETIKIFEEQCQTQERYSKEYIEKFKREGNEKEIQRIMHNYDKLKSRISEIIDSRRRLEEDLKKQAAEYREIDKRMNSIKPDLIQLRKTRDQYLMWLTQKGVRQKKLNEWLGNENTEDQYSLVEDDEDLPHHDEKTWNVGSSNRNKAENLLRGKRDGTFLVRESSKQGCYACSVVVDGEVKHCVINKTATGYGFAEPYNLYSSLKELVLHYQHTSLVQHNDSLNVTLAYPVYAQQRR
For the next test, the target named is PI3K gamma (Homo sapiens, UniProt P48736). Kind of test: PI3K gamma in vitro inhibition. Format: biochemical. The following applies: read-out: IC50 inhibition PI3K gamma. On the procedure: as §1
Chain of PI3K gamma (P48736 whole entry): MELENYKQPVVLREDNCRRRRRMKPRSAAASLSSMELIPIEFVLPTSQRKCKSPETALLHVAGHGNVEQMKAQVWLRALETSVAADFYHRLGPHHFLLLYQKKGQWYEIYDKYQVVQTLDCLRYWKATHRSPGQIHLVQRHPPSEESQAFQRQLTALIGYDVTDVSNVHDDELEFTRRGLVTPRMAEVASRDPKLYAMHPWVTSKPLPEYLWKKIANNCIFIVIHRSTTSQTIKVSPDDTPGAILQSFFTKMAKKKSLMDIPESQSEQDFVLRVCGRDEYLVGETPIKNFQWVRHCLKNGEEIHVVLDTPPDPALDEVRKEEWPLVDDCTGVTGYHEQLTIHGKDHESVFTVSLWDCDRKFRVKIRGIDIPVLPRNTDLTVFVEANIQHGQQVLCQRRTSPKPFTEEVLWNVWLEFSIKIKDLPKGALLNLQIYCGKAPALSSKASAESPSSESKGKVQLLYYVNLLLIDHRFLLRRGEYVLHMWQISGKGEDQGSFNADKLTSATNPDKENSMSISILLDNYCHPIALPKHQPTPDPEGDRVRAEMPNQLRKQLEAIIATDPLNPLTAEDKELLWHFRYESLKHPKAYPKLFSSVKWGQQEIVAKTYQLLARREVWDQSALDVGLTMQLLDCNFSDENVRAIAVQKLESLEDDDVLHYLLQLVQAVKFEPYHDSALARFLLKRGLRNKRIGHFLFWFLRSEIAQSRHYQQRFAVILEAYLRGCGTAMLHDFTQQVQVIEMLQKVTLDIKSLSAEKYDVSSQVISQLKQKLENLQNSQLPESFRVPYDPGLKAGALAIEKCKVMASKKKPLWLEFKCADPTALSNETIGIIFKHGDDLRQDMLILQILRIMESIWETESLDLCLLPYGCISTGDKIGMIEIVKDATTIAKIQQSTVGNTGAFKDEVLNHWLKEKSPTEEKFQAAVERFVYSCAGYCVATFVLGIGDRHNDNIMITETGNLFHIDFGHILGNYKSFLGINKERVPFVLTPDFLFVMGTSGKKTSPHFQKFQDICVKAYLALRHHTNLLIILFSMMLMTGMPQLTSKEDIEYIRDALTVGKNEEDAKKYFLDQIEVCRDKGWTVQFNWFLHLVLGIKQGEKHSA
(§2) IC50 inhibition data against the indicated targets were determined for compounds of the invention using standard in vitro assays (Tables 8 and 9).

The target in the next test is BTK (Homo sapiens, UniProt Q06187). In words: BTK in vitro inhibition. Format: biochemical. On the procedure:
as §1, §2

A further test has as its target BTK C481S (Homo sapiens, UniProt Q06187, C481S). In words: BTK C481S in vitro inhibition. Format: biochemical. On the procedure: as §1, §2
The next test deals with CDK4 cyclinD1 (Homo sapiens, UniProt P11802). In words: CDK4 cyclinD1 in vitro inhibition. It counts as biochemical. On the procedure: as §1, §2
The target of another test is CDK6 cyclinD1 (Homo sapiens, UniProt Q00534). In words: CDK6 cyclinD1 in vitro inhibition. It counts as biochemical. Here is the method: as §1, §2

Chain of PI3K alpha (P42336 whole entry): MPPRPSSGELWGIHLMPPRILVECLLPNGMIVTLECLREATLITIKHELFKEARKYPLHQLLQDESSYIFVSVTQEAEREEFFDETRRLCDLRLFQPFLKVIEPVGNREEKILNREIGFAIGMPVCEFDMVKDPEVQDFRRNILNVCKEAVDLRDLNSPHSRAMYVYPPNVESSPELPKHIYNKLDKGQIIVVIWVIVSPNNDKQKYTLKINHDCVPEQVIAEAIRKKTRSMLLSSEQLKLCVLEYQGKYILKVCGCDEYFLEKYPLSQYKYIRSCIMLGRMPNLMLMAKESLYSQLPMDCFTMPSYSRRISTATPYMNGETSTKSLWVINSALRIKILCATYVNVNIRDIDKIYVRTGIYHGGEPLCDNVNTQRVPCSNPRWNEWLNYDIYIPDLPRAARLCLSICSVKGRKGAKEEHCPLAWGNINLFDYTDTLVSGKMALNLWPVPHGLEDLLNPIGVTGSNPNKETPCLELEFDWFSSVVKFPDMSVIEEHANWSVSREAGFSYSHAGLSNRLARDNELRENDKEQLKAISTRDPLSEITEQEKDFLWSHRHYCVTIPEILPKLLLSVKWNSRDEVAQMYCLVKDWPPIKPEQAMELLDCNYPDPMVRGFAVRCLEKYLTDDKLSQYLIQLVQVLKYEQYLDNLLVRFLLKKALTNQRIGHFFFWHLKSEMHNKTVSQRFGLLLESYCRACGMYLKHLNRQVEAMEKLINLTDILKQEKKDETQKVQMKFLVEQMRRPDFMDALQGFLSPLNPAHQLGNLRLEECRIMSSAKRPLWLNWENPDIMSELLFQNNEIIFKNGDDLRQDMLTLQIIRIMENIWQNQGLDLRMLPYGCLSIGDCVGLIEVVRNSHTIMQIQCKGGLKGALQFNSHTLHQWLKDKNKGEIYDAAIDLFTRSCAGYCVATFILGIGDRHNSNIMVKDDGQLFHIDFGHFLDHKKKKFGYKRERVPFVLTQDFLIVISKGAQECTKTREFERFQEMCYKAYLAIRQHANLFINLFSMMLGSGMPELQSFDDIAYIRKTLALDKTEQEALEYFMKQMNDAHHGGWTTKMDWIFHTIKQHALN
Chain of PI3K alpha (P27986 whole entry partner): as the sequence (P27986 whole entry partner) above
Chain of BTK (Q06187 whole entry): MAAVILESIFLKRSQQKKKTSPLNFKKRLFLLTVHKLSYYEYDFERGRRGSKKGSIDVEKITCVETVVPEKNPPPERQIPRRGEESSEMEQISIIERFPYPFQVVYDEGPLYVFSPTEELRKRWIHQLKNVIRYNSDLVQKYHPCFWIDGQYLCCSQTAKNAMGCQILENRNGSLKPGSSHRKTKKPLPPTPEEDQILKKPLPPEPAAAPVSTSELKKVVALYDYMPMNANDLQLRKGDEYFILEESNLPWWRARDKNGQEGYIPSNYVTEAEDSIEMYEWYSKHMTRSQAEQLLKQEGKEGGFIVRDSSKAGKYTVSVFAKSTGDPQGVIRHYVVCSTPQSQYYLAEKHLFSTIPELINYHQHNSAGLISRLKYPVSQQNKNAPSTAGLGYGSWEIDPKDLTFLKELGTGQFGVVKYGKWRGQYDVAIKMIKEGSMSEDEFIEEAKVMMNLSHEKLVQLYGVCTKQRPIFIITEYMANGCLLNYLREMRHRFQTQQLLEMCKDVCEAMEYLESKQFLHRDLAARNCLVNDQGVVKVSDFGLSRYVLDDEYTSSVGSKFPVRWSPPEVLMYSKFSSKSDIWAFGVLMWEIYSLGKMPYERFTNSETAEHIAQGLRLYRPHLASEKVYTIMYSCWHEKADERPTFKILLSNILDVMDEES
Chain of BTK C481S (Q06187 whole entry C481S): as the sequence (Q06187 whole entry) above, with C481S counted along it

For the molecule `C=CC(=O)Nc1ccc(-c2csc3c(=O)cc(N4CCOCC4)oc23)cc1` [Compound 30], the IC50 was 1000 to 10000 nM against BRD4-1; under 500 nM against BRD4-2; under 500 nM against PI3K alpha; under 500 nM at PI3K beta; 500 to 1000 nM at PI3K gamma; 10000 to 45000 nM on BTK. For the same molecule, the IC50 against BTK C481S is over 45000 nM.

Regarding `C=CC(=O)N1CCOc2ccc(-c3csc4c(=O)cc(N5CCNCC5)oc34)cc21` [Compound 26], the 50% inhibitory concentration (IC50) on BRD4-1 was under 500 nM; against PI3K alpha, 10000 to 45000 nM; against PI3K beta it was 1000 to 10000 nM; on PI3K gamma it was over 45000 nM; against BTK it was under 500 nM; against BTK C481S, 10000 to 45000 nM.

In the case of `C/C=C(/C)C(=O)N1CCOc2ccc(-c3csc4c(=O)cc(N5CCOCC5)oc34)cc21` [Compound 37], the IC50 at BRD4-1 was 500 to 1000 nM; on BRD4-2, 500 to 1000 nM; on PI3K alpha it was under 500 nM; against PI3K beta it was under 500 nM; on PI3K gamma, 500 to 1000 nM; against BTK, 10000 to 45000 nM. At BTK C481S, this molecule displayed an IC50 of over 45000 nM.

`C=CS(=O)(=O)N(c1cccc(-c2csc3c(=O)cc(N4CCOCC4)oc23)c1)S(=O)(=O)C=C` [Compound 50]: the IC50 at BRD4-1, on BRD4-2, against PI3K alpha, on PI3K beta, at PI3K gamma and against BTK was under 500 nM each time. On BTK C481S, this molecule came in with an IC50 of 10000 to 45000 nM.

Turning to `C=CC(=O)Nc1cccc(-c2csc3c(=O)cc(N4CCNCC4)oc23)c1` [Compound 27], the IC50 is 500 to 1000 nM against BRD4-1; over 45000 nM at PI3K alpha; over 45000 nM at PI3K beta; over 45000 nM on PI3K gamma; 10000 to 45000 nM against BTK C481S.

For `C/C=C/C(=O)N1CCOc2ccc(-c3csc4c(=O)cc(N5CCOCC5)oc34)cc21` [Compound 39], the IC50 against BRD4-1 is under 500 nM; against BRD4-2, under 500 nM; at PI3K alpha, under 500 nM; on PI3K beta it was under 500 nM; at PI3K gamma, 1000 to 10000 nM; on BTK, 10000 to 45000 nM. The IC50 on BTK C481S is over 45000 nM.

Consider `C=CS(=O)(=O)N(CCS(=O)(=O)N(c1cc(-c2csc3c(=O)cc(N4CCOCC4)oc23)ccc1OC)S(=O)(=O)C=C)c1cc(-c2csc3c(=O)cc(N4CCOCC4)oc23)ccc1OC` [Compound 51], for which the IC50 at BRD4-1 is 1000 to 10000 nM; against BRD4-2 it was under 500 nM; at PI3K alpha, under 500 nM; at PI3K beta, under 500 nM; at PI3K gamma, 500 to 1000 nM; against BTK, 1000 to 10000 nM. This molecule gave an IC50 on BTK C481S of 10000 to 45000 nM.

For `C=CC(=O)Nc1cc(-c2csc3c(=O)cc(N4CCOCC4)oc23)ccc1OC` [Compound 36], the IC50 is under 500 nM against BRD4-1; 500 to 1000 nM against BRD4-2; under 500 nM at PI3K alpha; under 500 nM against PI3K beta; 1000 to 10000 nM on PI3K gamma; 1000 to 10000 nM on BTK. This molecule also registered an IC50 against BTK C481S of 1000 to 10000 nM.

Take `C=CS(=O)(=O)N(C)c1cccc(-c2csc3c(=O)cc(N4CCOCC4)oc23)c1` [Compound 47]: the IC50 was under 500 nM against BRD4-1; 500 to 1000 nM against BRD4-2; under 500 nM against PI3K alpha; under 500 nM against PI3K beta; under 500 nM on PI3K gamma; under 500 nM at BTK. In addition, the IC50 on BTK C481S was over 45000 nM.

Consider `C=CC(=O)Nc1cccc(-c2csc3c(=O)cc(N4CCOCC4)oc23)c1` [Compound 31], for which the IC50 is 500 to 1000 nM against BRD4-1; 1000 to 10000 nM at BRD4-2; under 500 nM against PI3K alpha; under 500 nM against PI3K beta; 1000 to 10000 nM at PI3K gamma; 500 to 1000 nM against BTK. For the same molecule, the concentration for half-maximal inhibition (IC50) against BTK C481S was over 45000 nM.

As for `COc1cc(NC(C)=O)cc(-c2csc3c(=O)cc(N4CCOCC4)oc23)c1` [Compound 33], the concentration for half-maximal inhibition (IC50) against BRD4-1 is under 500 nM; at BRD4-2, 1000 to 10000 nM; on PI3K alpha it was under 500 nM; against PI3K beta, under 500 nM; on PI3K gamma, under 500 nM; against BTK, 500 to 1000 nM. The molecule also displayed a concentration for half-maximal inhibition (IC50) on BTK C481S of over 45000 nM.

In the case of `C=CS(=O)(=O)N1CCCc2ccc(-c3csc4c(=O)cc(N5CCOCC5)oc34)cc21` [Compound 44], the IC50 at BRD4-1, at BRD4-2, against PI3K alpha, on PI3K beta, on PI3K gamma and against BTK was under 500 nM in each case. On BTK C481S, this molecule registered an IC50 of 10000 to 45000 nM.

As to `N#C/C(=C\C1CC1)C(=O)Nc1cccc(-c2csc3c(=O)cc(N4CCOCC4)oc23)c1` [Compound 35], the IC50 on BRD4-2 is 500 to 1000 nM; at PI3K alpha, under 500 nM; on PI3K beta it was under 500 nM; against BTK, 10000 to 45000 nM; on BTK C481S, 10000 to 45000 nM.

As for `C/C=C(\C)C(=O)N1CCOc2ccc(-c3csc4c(=O)cc(N5CCOCC5)oc34)cc21` [Compound 38], the half-maximal inhibitory concentration (IC50) against BRD4-1 is under 500 nM; against BRD4-2, 500 to 1000 nM; at PI3K alpha, under 500 nM; against PI3K beta it was under 500 nM; on PI3K gamma, 1000 to 10000 nM; against BTK, over 45000 nM. On BTK C481S, this molecule yielded a 50% inhibitory concentration (IC50) of over 45000 nM.

At BTK, `O=C(C1=CCCC1)N1CCOc2ccc(-c3csc4c(=O)cc(N5CCOCC5)oc34)cc21` [Compound 41] yielded an IC50 of 1000 to 10000 nM.

In the case of `C=CS(=O)(=O)Nc1cccc(-c2csc3c(=O)cc(N4CCOCC4)oc23)c1` [Compound 46], the IC50 against BRD4-1, at BRD4-2, on PI3K alpha, against PI3K beta, at PI3K gamma and at BTK was under 500 nM each time. Besides, the IC50 against BTK C481S was over 45000 nM.

Consider `O=C(C1=CCCC1)N1CCOc2ccc(-c3csc4c(=O)cc(N5CCOCC5)oc34)cc21` [Compound 40], for which the IC50 against BRD4-1 was under 500 nM; against BRD4-2, under 500 nM; on PI3K alpha, under 500 nM; against PI3K beta, under 500 nM; at PI3K gamma it was 1000 to 10000 nM; at BTK, over 45000 nM. In addition, the IC50 on BTK C481S fell in the range of 10000 to 45000 nM.

Regarding `CN(C)C(=O)c1cc2cnc(Nc3ccc(-c4csc5c(=O)cc(N6CCOCC6)oc45)c(C(=O)NCCN)c3)nc2n1C1CCCC1` [Compound 22], the IC50 at BRD4-1 is over 45000 nM; at BRD4-2, 1000 to 10000 nM; at PI3K alpha it was 500 to 1000 nM; on PI3K beta, under 500 nM; at PI3K gamma, 10000 to 45000 nM; at CDK4 cyclinD1, under 500 nM. Further, the 50% inhibitory concentration (IC50) on CDK6 cyclinD1 was under 500 nM.

On to `C=CC(=O)N1CCOc2ccc(-c3csc4c(=O)cc(N5CCN(C)CC5)oc34)cc21` [Compound 28], for which the IC50 at BRD4-2 is 10000 to 45000 nM; on PI3K alpha, 10000 to 45000 nM; against PI3K beta, 1000 to 10000 nM; at PI3K gamma it was over 45000 nM; at BTK, under 500 nM.

For `C=CS(=O)(=O)N(C)c1cc(-c2csc3c(=O)cc(N4CCOCC4)oc23)ccc1OC` [Compound 48], the IC50 on BRD4-1, against BRD4-2, against PI3K alpha, at PI3K beta, on PI3K gamma and on BTK was under 500 nM throughout. The molecule further yielded an IC50 against BTK C481S of over 45000 nM.

In the case of `C=CC(=O)N1CCOc2ccc(-c3csc4c(=O)cc(N5CCOCC5)oc34)cc21` [Compound 32], the IC50 on BRD4-1, against BRD4-2, against PI3K alpha, at PI3K beta, at PI3K gamma and at BTK was under 500 nM in each case. The molecule also registered a half-inhibitory concentration (IC50) at BTK C481S of 10000 to 45000 nM.

Regarding `C=CC(=O)N1CCOc2ccc(-c3csc4c(=O)cc(N5CCN(C(=O)OC(C)(C)C)CC5)oc34)cc21` [Compound 29], the IC50 was 500 to 1000 nM at BRD4-1; 10000 to 45000 nM against PI3K alpha; 1000 to 10000 nM against PI3K beta; 10000 to 45000 nM at PI3K gamma; under 500 nM against BTK; 10000 to 45000 nM against BTK C481S.

For the molecule `CCCCC/C=C/C(=O)Nc1cccc(-c2csc3c(=O)cc(N4CCOCC4)oc23)c1` [Compound 34], the IC50 against BRD4-2 is 10000 to 45000 nM; on PI3K beta, 1000 to 10000 nM; on PI3K gamma, 10000 to 45000 nM; at BTK, over 45000 nM; on BTK C481S, over 45000 nM.

The IC50 is the concentration that gives 50% inhibition.
